# Patent US6936270B2, “Device and method for treating conditions of a joint” (Control Delivery Systems, Inc., priority 2000, dated 2005)
# Like-named read-outs stand apart in the source and are kept apart here.
# Assay: Fluocinolone acetonide concentration in dog plasma after bilateral intraarticular implants (twelve month toxicity study in beagle dogs)
# Format: in vivo, Canis familiaris
# Settings: other: bilateral intraarticular implants (knee joints)
# Experimental: Devices were administered once via bilateral intraarticular implants. The day of surgical implantation was Day 1. The devices were made as follows. Fluocinolone acetonide, USP, was compressed into 1.5 mm diameter tablets using standard pharmaceutical methods. The tablets were placed into preformed cups made from silicone elastomer. Cup size was dependent on dosage form. These cups were attached to […] (PVA) suture tabs. For the 2 mg implants, the surface of the tablet not coated with silicone was attached to a suture tab with PVA solution. For the 6 mg implant, a side of the silicone cup was attached perpendicular to the suture tab. Finally, the assemblies were dip coated with PVA. The implants were then cured at 135° C. for 5 hours and placed within the primary package. The product in the primary package was placed in a self-adhesive pouch and sterilized using gamma irradiation. Surgery was performed on both knee joints of all animals. A lateral skin incision was made to expose the fascia lata overlying the vastus lateralis cranially and the biceps fernoris caudally. The joint was exposed through an incision in the lateral intermuscular septum to expose the femur by anterior retraction of the vastus lateralis and posterior retraction of the biceps femoris. Care was taken not to disrupt the tendon of origin of the long digital extensor as it originates from the lateral femoral condyle. The joint capsule was opened, the patella luxated medially, and the joint was held in full flexion. 2 mg devices were placed in the right leg and 18 mg implants were placed in the left leg. The implants were placed within the anterior intercondyloid fossa, immediately lateral to the origin of the posterior cruciate ligament. The bone may be slightly deepened at this location with a curette to accept the implant. The implant was sutured in place to the posterior cruciate ligament. The joint capsule was closed with 3/0 PDS in a simple interrupted fashion. The retinaculum and intermuscular septum were closed with 2/0 Vicryl in a continuous pattern. The fascia lata were closed with 2/0 PDS, and the subcutaneous tissues with 3/0 PDS, both in a simple continuous pattern. The skin was closed with 3/0 Vicryl in a subcuticular pattern. Blood was collected from a peripheral vessel. Blood volumes represent whole blood and are approximate amounts. The blood samples were processed for plasma, the plasma was extracted, and the plasma was placed immediately in a ≦−70°C. freezer until transferred for analysis.
smiles,measurement,setting,value
CC1(C)O[C@@H]2C[C@H]3[C@@H]4C[C@H](F)C5=CC(=O)C=C[C@]5(C)[C@@]4(F)[C@@H](O)C[C@]3(C)[C@]2(C(=O)CO)O1 [Fluocinolone Acetonide],concentration at 3 day,"Dog 1001, Day 3, read-out: Assayed Concentrations of Fluocinolone Acetonide in Dog Plasma Samples",1.89 ng/mL
same,concentration at 21 day,"Dog 1001, Day 21, read-out: Assayed Concentrations of Fluocinolone Acetonide in Dog Plasma Samples",0.57 ng/mL
same,concentration at 7 day,"Dog 3001, Day 7, read-out: Assayed Concentrations of Fluocinolone Acetonide in Dog Plasma Samples",16.9 ng/mL
same,concentration at 21 day,"Dog 3001, Day 21, read-out: Assayed Concentrations of Fluocinolone Acetonide in Dog Plasma Samples",4.92 ng/mL
